The results in this text go back to paper PMC6046546, “Gossypol Inhibits Non-small Cell Lung Cancer Cells Proliferation by Targeting EGFR^L858R/T790M” (Frontiers in Pharmacology, 2018).

In general, EC50 refers to the concentration at which the effect is half-maximal.

For one test, the target named is T1, EGFR^L858R/T790M (Homo sapiens, UniProt P00533, L858R/T790M).
T1 construct: kinase domain
In words: ELISA kinase activity assay, recombinant kinase, poly(Glu,Tyr) […] substrate, […] ATP. It counts as biochemical. For orientation: An ELISA detects its analyte on a solid surface through an enzyme-linked reagent.

The next test concerns the target EGFR^WT (Homo sapiens, UniProt P00533). In words: ELISA kinase activity assay, poly(Glu,Tyr) […] substrate, […] ATP. The format is biochemical.

T1 sequence (P00533 696-1022 T790M/L858R limits assumed): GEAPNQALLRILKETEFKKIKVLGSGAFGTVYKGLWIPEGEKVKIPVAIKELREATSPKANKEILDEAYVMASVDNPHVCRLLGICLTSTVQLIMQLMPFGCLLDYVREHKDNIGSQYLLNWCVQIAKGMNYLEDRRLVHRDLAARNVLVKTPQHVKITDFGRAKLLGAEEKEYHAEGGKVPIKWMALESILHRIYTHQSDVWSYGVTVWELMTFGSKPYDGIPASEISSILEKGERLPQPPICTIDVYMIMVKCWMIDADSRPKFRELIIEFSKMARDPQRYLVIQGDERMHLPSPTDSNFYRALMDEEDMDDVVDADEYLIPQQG
Sequence of EGFR^WT (P00533 25-1210): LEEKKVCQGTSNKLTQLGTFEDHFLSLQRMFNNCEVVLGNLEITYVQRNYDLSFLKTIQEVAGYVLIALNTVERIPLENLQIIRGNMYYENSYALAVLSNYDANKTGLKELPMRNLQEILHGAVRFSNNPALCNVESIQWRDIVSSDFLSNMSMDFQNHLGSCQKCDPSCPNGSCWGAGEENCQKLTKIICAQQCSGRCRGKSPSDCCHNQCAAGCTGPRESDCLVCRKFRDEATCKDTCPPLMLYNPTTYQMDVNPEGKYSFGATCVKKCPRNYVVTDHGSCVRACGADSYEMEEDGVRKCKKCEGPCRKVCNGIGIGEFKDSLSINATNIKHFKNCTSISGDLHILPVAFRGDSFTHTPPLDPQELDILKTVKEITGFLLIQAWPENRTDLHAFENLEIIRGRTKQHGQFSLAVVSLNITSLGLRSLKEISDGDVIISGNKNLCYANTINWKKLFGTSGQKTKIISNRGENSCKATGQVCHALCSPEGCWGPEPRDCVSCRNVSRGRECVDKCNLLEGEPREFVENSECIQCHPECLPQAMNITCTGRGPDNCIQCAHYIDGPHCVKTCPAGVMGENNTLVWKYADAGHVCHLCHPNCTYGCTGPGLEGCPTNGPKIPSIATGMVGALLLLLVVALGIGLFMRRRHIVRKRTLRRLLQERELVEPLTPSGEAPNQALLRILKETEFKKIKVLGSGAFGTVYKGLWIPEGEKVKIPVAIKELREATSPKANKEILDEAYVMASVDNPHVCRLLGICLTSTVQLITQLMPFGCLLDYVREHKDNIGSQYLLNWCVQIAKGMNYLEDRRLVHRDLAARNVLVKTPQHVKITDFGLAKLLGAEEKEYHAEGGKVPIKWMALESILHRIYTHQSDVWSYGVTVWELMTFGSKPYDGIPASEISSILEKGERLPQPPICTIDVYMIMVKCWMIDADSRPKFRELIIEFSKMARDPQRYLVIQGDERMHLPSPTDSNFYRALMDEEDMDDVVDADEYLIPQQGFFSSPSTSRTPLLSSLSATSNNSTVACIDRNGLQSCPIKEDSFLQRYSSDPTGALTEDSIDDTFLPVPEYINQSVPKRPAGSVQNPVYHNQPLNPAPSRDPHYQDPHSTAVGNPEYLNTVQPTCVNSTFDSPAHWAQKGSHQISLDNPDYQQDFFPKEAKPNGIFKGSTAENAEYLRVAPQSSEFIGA

In the case of `Cc1cc2c(C(C)C)c(O)c(O)c(C=O)c2c(O)c1-c1c(C)cc2c(C(C)C)c(O)c(O)c(C=O)c2c1O` [gossypol], the results for the EC50 at EGFR^L858R/T790M and on EGFR^WT were 150 ± 30.7 nM and 253 ± 26.9 nM, respectively.
